In data set [1] the test system is GST-HIF-2α PAS-B* and ARNT PAS-B*-FLAG domains (HIF-2α–ARNT heterodimerization). The experiment in a line: AlphaScreen luminescence proximity assay of HIF-2α–ARNT PAS-B heterodimerization. As to conditions: for IC50: read-out: AlphaScreen IC50, disruption of HIF-2α PAS-B*–ARNT PAS-B* heterodimer; for AlphaScreen activity (in words): disruption of HIF-2α–ARNT heterodimerization. On the technique in general: Bead proximity is the source of the signal in Alpha formats.

Data set [2] deals with HIF-2α PAS-B domain (Homo sapiens, UniProt Q99814). The experiment in a line: Isothermal titration calorimetry. In kind it is binding. As to conditions: for weakening of binding relative to compound 32: ITC data, compared with 32. (In general: Isothermal titration calorimetry measures the heat released or taken up as one component is titrated into another.)
Chain of HIF-2α PAS-B domain (Q99814 240-350 limits assumed): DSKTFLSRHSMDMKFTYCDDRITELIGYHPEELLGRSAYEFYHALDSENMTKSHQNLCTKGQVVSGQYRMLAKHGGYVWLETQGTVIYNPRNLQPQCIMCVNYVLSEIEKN
Data set [3] in a line: Solubility observation. Format: physicochemical.

Bounds are passed on as bounds.

As a reminder, the IC50 is the concentration that gives 50% inhibition. With `Cc1ccc(CNc2ccc3nonc3c2[N+](=O)[O-])cc1` [Compound 4], the IC50 in data set [1] was greater than 30 µM. Regarding `O=[N+]([O-])c1c(NCc2c(F)cccc2Cl)ccc2nonc12` [Compound 7], the IC50 in data set [1] is greater than 30 µM. Regarding `O=[N+]([O-])c1c(NCc2cc(F)ccc2C(F)(F)F)ccc2nonc12` [Compound 11], the IC50 in data set [1] is greater than 30 µM.

Regarding `COc1cccc(Nc2ccc3nonc3c2[N+](=O)[O-])c1` [Compound 16], the IC50 in data set [1] was greater than 30 µM.

`O=[N+]([O-])c1c(Nc2ccc(F)cc2)ccc2nonc12` [Compound 17]: the IC50 in data set [1] was greater than 30 µM. The same measure, in the same setting: next, `O=[N+]([O-])c1c(Nc2ccc(Cl)cc2)ccc2nonc12` [Compound 18]: greater than 30 µM. Consider `O=[N+]([O-])c1c(Nc2cccc(Cl)c2)ccc2nonc12` [Compound 19], for which, in data set [2], the “weakening of binding relative to compound 32” value is recorded as “two fold reduction in affinity”.

For the compound `O=[N+]([O-])c1c(Nc2ccc(Br)cc2)ccc2nonc12` [Compound 20], in data set [1], the IC50 was greater than 30 µM. As for `O=[N+]([O-])c1c(Nc2cccc(F)c2)ccc2nonc12` [Compound 23], the “weakening of binding relative to compound 32” value in data set [2] is 25 fold. For the compound `O=[N+]([O-])c1c(Nc2ccc(C(F)(F)F)cc2Cl)ccc2nonc12` [Compound 24], in data set [1], the IC50 was greater than 30 µM.

For the compound `O=[N+]([O-])c1c(Nc2cc(F)cc(F)c2)ccc2nonc12` [Compound 30], in data set [2], the “weakening of binding relative to compound 32” value is given as 8 fold. For the compound `Fc1cc(Cl)cc(Nc2ccc3nonc3c2)c1` [Compound 46], the “solubility (in words)” value in data set [3] is reported as “relatively insoluble”. In addition, the “AlphaScreen activity (in words)” value in data set [1] is recorded as “weak activity”. Turning to `Nc1c(Nc2cc(F)cc(Cl)c2)ccc2nonc12` [Compound 47], the “solubility (in words)” value in data set [3] is given as “relatively insoluble”. For the same compound, the “AlphaScreen activity (in words)” value in data set [1] is recorded as “weak activity”. For the same compound, in data set [2] (binding and disruption, NO2 replaced by NH2, compared with 32), the “worsening of binding and disruption relative to compound 32” value is recorded as 30–60 fold. With `CC(=O)Nc1c(Nc2cc(F)cc(Cl)c2)ccc2nonc12` [Compound 48], the IC50 in data set [1] was greater than 30 µM. Take `O=C(CCl)Nc1c(Nc2cc(F)cc(Cl)c2)ccc2nonc12` [Compound 49]: the 50% inhibitory concentration (IC50) in data set [1] is greater than 30 µM. Turning to `O=C1C=CC(=O)N1c1c(Nc2cc(F)cc(Cl)c2)ccc2nonc12` [Compound 50], the IC50 in data set [1] was greater than 30 µM. In the case of `CNS(=O)(=O)c1c(Nc2cc(F)cc(Cl)c2)ccc2nonc12` [Compound 54], in data set [1], the “AlphaScreen activity (in words)” value was “inactive as disruptors” and the IC50 is greater than 30 µM. For the compound `CN(C)S(=O)(=O)c1c(Nc2cc(F)cc(Cl)c2)ccc2nonc12` [Compound 55], in data set [1], the “AlphaScreen activity (in words)” value is “inactive as disruptors”.

The values are drawn from PMC3676484 (Journal of medicinal chemistry, 2013).
